Assay results reported in US6562378B1, “Nutritional supplement for adolescents” (TSAR Health Private Ltd., priority 2002, dated 2003).
Marks after values point to notes of the source that are not given here.

How the values were obtained:
Format in all cases: in vivo, human
blood lymphocytes = assay: Zinc dose response: lymphocyte response to PHA (thymidine uptake, stimulation index); details: 13-18 year old adolescents, median (standard deviation)
Protocol: (§1) The basic concept underlying the assessment of the most optimum nutrient amounts for a given age group uses the principle of “dose-response curves”. At least four groups of individuals were provided with various amounts of a given nutrient and their immune responses were measured using established and accepted techniques. The amount of a nutrient that gave the best response was considered the optimum amount. Dose response curves were determined for all vitamins and trace elements considered essential for human health, particularly immunity.
Data for the dose response curve for zinc in a group of 13-18 year old adolescents is shown in FIGS. 1 and 2, with the total amount of zinc taken is shown for each group. To determine the magnitude of immune response, an aliquot of blood was withdrawn from each subject in the study, blood lymphocytes were separated, washed and mixed with the mitogen phytohemagglutinin (PHA) in previously determined optimum amount. The optimum amount of PHA used in the experiments was predetermined by a set of dose response curves using lymphocytes of a healthy donor and four different concentrations of PHA. After culture in a sterile environment for 72 hours, the cells were washed and mixed with radioactive thymidine. The same steps were undertaken in a control sample in which only the culture medium was used, not PHA. The cells were washed and radioactivity determined.
(§2) The ratio of radioactivity in the test samples divided by radioactivity in control samples gave the “stimulation response” shown in FIGS. 1 and 2.

Interleukin-2 = assay: Zinc dose response: interleukin-2; details: adolescents, median (standard deviation)
Protocol: as §1, §2

Antibody response = assay: Zinc dose response: antibody response; details: adolescents
Protocol: as §1, §2

Thymulin activity = assay: Zinc dose response: thymulin activity; details: adolescents
Protocol: as §1, §2

[1] = supplemental zinc 11 mg/day plus 7 mg in diet
[2] = supplemental zinc 28 mg/day plus 7 mg in diet
[3] = supplemental zinc 55 mg/day plus 7 mg in diet

For `[Zn]` [zinc], the “Lymphocyte Response to PHA (stimulation index)” value (blood lymphocytes; [1]) was 77 (8), the “Lymphocyte Response to PHA (stimulation index)” value (blood lymphocytes; [2]) was 51 (6) and the “Lymphocyte Response to PHA (stimulation index)” value (blood lymphocytes; [3]) was 40 (7). The Interleukin-2 (Interleukin-2; [1]) was 17 (1.4) units/ml, the Interleukin-2 (Interleukin-2; [2]) was 11 (1.5) units/ml and the Interleukin-2 (Interleukin-2; [3]) was 9 (1.1) units/ml. The “Antibody response (median reciprocal titre)” value (from here on “Antibody response”) (Antibody response; [1]) was 254, the “Antibody response” value (Antibody response; [2]) was 136 and the “Antibody response” value (Antibody response; [3]) was 97. The “Thymulin activity (median reciprocal titer)” value (from here on “Thymulin activity”) (Thymulin activity; [1]) was 114*, the “Thymulin activity” value (Thymulin activity; [2]) was 123* and the “Thymulin activity” value (Thymulin activity; [3]) was 106*.
